Where two headings read alike, the source gives them in different places. Starred links: 1 amine or outer side, 2 acyl side, 3 side chain; linkers in the order of their positions; H or OH if unused. Positions of bridges follow the written chain, without caps; N, C: chain ends. Non-standard residues stand in square brackets, D forms with d. Residues, ends and D or L forms follow the SMILES beside them. *: point of attachment. Bip(4'-NHCO-C6H4-3-CH2COOH) = N[C@@H](Cc1ccc(-c2ccc(NC(=O)c3cccc(CC(=O)O)c3)cc2)cc1)C(=O)O; Bip(4'-NH) = O=C([C@H](Cc1ccc(-c2ccc(N[*:3])cc2)cc1)N[*:1])[*:2]; dArg(ω-(3-HO-benzyl)) = N=C(NCCC[C@@H](N)C(=O)O)NCc1cccc(O)c1; Indazole3carbonyl(1-CH2COOH) = O=C(O)Cn1nc(C(=O)*)c2ccccc21; Bip(4'-COOH) = N[C@@H](Cc1ccc(-c2ccc(C(=O)O)cc2)cc1)C(=O)O; Bip(4'-NHAc) = CC(=O)Nc1ccc(-c2ccc(C[C@H](N)C(=O)O)cc2)cc1; Phe(4-(3-Py)) = N[C@@H](Cc1ccc(-c2cccnc2)cc1)C(=O)O; Ala(imidazol-2-yl) = N[C@@H](Cc1ncc[nH]1)C(=O)O; Ala(morpholin-4-yl) = N[C@@H](CN1CCOCC1)C(=O)O; Phe(3-CONH2) = NC(=O)c1cccc(C[C@H](N)C(=O)O)c1; Bip = N[C@@H](Cc1ccc(-c2ccccc2)cc1)C(=O)O; cisHyp = O=C(O)[C@@H]1C[C@H](O)CN1; 2Pal = N[C@@H](Cc1ccccn1)C(=O)O; Tic = O=C(O)[C@@H]1Cc2ccccc2CN1; Cha = N[C@@H](CC1CCCCC1)C(=O)O; Tle = CC(C)(C)[C@H](N)C(=O)O; Pip = O=C(O)[C@@H]1CCCCN1; Sar = CNCC(=O)O
Target: TNFα (Homo sapiens, UniProt P01375)
Assay: TNF-Induced HEK-Blue Assay
Assay type: cell-based
[1] = HEK-Blue-CD40L cells, NF-kB-driven secreted alkaline phosphatase reporter, TNFα 0.5 ng/ml, 18 h, read-out: TNF induced HEK-Blue assay IC50 value

Chain of TNFα (P01375 77-233 limits assumed): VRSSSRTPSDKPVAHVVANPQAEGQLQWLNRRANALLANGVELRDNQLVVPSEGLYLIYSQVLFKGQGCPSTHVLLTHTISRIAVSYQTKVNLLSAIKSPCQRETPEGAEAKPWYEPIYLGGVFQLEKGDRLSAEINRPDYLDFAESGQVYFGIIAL

IC50 [1] | Structure (SMILES) | IC50
< 50 nM | CC(=O)Nc1ccc(-c2ccc(C[C@@H]3NC(=O)[C@H](Cc4ccc(-c5ccc(C(=O)O)cc5)cc4)NC(=O)[C@H](CN4CCOCC4)NC(=O)CSC[C@@H](C(=O)NCC(N)=O)NC(=O)[C@H](CC(C)C)NC(=O)[C@H](Cc4ccc(O)cc4)NC(=O)[C@H](C(C)C)NC(=O)[C@@H]4CCCCN4C(=O)[C@H](C(C)C)NC(=O)[C@@H](CCCNC(=N)N)NC(=O)[C@H](CC(=O)O)NC(=O)[C@H](Cc4ccc(O)cc4)NC(=O)CN(C)C3=O)cc2)cc1 [Example 168] ({CH2CO}-[Ala(morpholin-4-yl)][Bip(4'-COOH)][Bip(4'-NHAc)][Sar]YD[dR]V[Pip]VYLCG-NH2; thioether N-13) | 
 | CC[C@H](C)[C@@H]1NC(=O)[C@@H]2CCCN2C(=O)[C@H]([C@@H](C)CC)NC(=O)[C@@H](CCCNC(=N)N)NC(=O)[C@H](CC(=O)O)NC(=O)[C@H](Cc2ccccn2)NC(=O)CN(C)C(=O)[C@H](Cc2ccc(-c3ccc(NC(=O)c4nn(CC(=O)O)c5ccccc45)cc3)cc2)NC(=O)[C@H](Cc2ccc(-c3ccccc3)cc2)NC(=O)[C@H](C(C)(C)C)NC(=O)CSC[C@@H](C(=O)NCC(N)=O)NC(=O)[C@H](CC(C)C)NC(=O)[C@H](Cc2cccc(C(N)=O)c2)NC1=O [Example 356] ({CH2CO}-[Tle][Bip][Bip(4'-NH)](Indazole3carbonyl(1-CH2COOH))[Sar][2Pal]D[dR]IPI[Phe(3-CONH2)]LCG-NH2; thioether N-13) | < 50 nM
200 to 2000 nM | CC(C)[C@@H]1NC(=O)[C@H](CCCNC(=N)N)NC(=O)[C@H](C(C)C)NC(=O)[C@@H]2CCCN2C(=O)[C@H](C(C)C)NC(=O)[C@H](CCCNC(=N)N)NC(=O)[C@H](CC(=O)O)NC(=O)[C@@H]2CCCN2C(=O)CN(C)C(=O)[C@H](Cc2ccc(-c3ccccc3)cc2)NC(=O)[C@H](Cc2ccc(-c3cccnc3)cc2)NC(=O)[C@H](CN2CCOCC2)NC(=O)CSC[C@@H](C(=O)NCC(N)=O)NC1=O [Example 88] ({CH2CO}-[Ala(morpholin-4-yl)][Phe(4-(3-Py))][Bip][Sar]PDRVPVRVCG-NH2; thioether N-13) | 
50 to 200 nM | CC(=O)Nc1ccc(-c2ccc(C[C@@H]3NC(=O)[C@H](Cc4ccc(-c5ccccc5)cc4)NC(=O)[C@H](CN4CCOCC4)NC(=O)CSC[C@@H](C(=O)NCC(N)=O)NC(=O)[C@H](CC(C)C)NC(=O)[C@H](Cc4ccc(O)cc4)NC(=O)[C@H](C(C)C)NC(=O)[C@@H]4CCCN4C(=O)[C@H](C(C)C)NC(=O)[C@@H](CCCNC(=N)N)NC(=O)[C@H](CC(=O)O)NC(=O)[C@@H]4C[C@H](O)CN4C(=O)CN(C)C3=O)cc2)cc1 [Example 183] ({CH2CO}-[Ala(morpholin-4-yl)][Bip][Bip(4'-NHAc)][Sar][cisHyp]D[dR]VPVYLCG-NH2; thioether N-13) | 
 | CC[C@H](C)[C@@H]1NC(=O)[C@@H](CCCNC(=N)N)NC(=O)[C@H](CC(=O)O)NC(=O)[C@H](Cc2cnc[nH]2)NC(=O)CN(C)C(=O)[C@H](Cc2ccc(-c3ccc(NC(=O)c4nn(CC(=O)O)c5ccccc45)cc3)cc2)NC(=O)[C@H](Cc2ccc(-c3ccc(C(=O)O)cc3)cc2)NC(=O)[C@H](CC2CCCCC2)NC(=O)CSC[C@@H](C(=O)NCC(N)=O)NC(=O)[C@H](CC(C)C)NC(=O)[C@H](Cc2cnc[nH]2)NC(=O)[C@H](C(C)C)NC(=O)[C@@H]2Cc3ccccc3CN2C1=O [Example 361] ({CH2CO}-[Cha][Bip(4'-COOH)][Bip(4'-NH)](Indazole3carbonyl(1-CH2COOH))[Sar]HD[dR]I[Tic]VHLCG-NH2; thioether N-13) | < 50 nM
50 to 200 nM | CC(C)C[C@@H]1NC(=O)[C@H](Cc2ncc[nH]2)NC(=O)[C@H](C(C)C)NC(=O)[C@@H]2CCCN2C(=O)[C@H](C(C)C)NC(=O)[C@@H](CCCNC(=N)NCc2cccc(O)c2)NC(=O)[C@H](CC(=O)O)NC(=O)[C@H](Cc2ccccn2)NC(=O)CN(C)C(=O)[C@H](Cc2ccc(-c3ccc(NC(=O)c4cccc(CC(=O)O)c4)cc3)cc2)NC(=O)[C@H](Cc2ccc(-c3ccc(C(=O)O)cc3)cc2)NC(=O)[C@H](CC2CCCCC2)NC(=O)CSC[C@@H](C(=O)NCC(N)=O)NC1=O [Example 553] ({CH2CO}-[Cha][Bip(4'-COOH)][Bip(4'-NHCO-C6H4-3-CH2COOH)][Sar][2Pal]D[dArg(ω-(3-HO-benzyl))]VPV[Ala(imidazol-2-yl)]LCG-NH2; thioether N-13) | 
 | CC[C@H](C)[C@@H]1NC(=O)[C@@H](CCCNC(=N)N)NC(=O)[C@H](CC(=O)O)NC(=O)[C@H](Cc2cnc[nH]2)NC(=O)CN(C)C(=O)[C@H](Cc2ccc(-c3ccc(NC(=O)c4nn(CC(=O)O)c5ccccc45)cc3)cc2)NC(=O)[C@H](Cc2ccc(-c3ccccc3)cc2)NC(=O)[C@H](CC2CCCCC2)NC(=O)CSC[C@@H](C(=O)NCC(N)=O)NC(=O)[C@H](CC(C)C)NC(=O)[C@H](Cc2cnc[nH]2)NC(=O)[C@H](C(C)C)NC(=O)[C@@H]2CCCN2C1=O [Example 364] ({CH2CO}-[Cha][Bip][Bip(4'-NH)](Indazole3carbonyl(1-CH2COOH))[Sar]HD[dR]IPVHLCG-NH2; thioether N-13) | < 50 nM
